# Source: US20240148717A1, “COMBINATION THERAPY FOR TREATMENT OF CONDITIONS ASSOCIATED WITH AGING” (priority 2021, published 2024)
# How the values were obtained:
# spirochetes = assay: Case study Patient A: penicillin G, then with Lycopene and Allicin, for neuro-spirochetosis; type: in vivo, human; conditions: 24 million units per day intravenously every 4 hours, after a few days
# Description: A patient (below, “Patient A”) was hospitalized on 10 Jun. 2019 and reported the following symptoms: • Fatigue; • Rash similar to a syphilis rash Patient A experienced 6 months previous; • Blurred vision; and • Headache and impaired thinking.
# Based on the above results Patient A was treated with aqueous crystalline penicillin G 24 million units per day, administered intravenously every 4 hours.
# On 23 Feb. […] However, other spirochetes were present which could create systemic infection. Among these bacteria, Patient A had Brachyspira, a slow-growing anaerobic spirochete that can colonize the large intestine of animals including humans. While Brachyspira is known for causing diarrhea, it was recently discovered that it could also attack other organs. It was found in the Alzheimer's brain (Miklossy, 2011 [16]) and has been recently been associated with other human chronic conditions (Hampson, 2017 [17]). One human experimental infection was recently performed, where a volunteer drank cultures of Brachyspira isolated from an Australian Aboriginal child with diarrhea, and reported headaches, among other symptoms. (Hampson, 2017 [18]).
# After a number of medical consultations, Patient A agreed to follow a non-standard protocol, extending penicillin treatment s to a 6+week course for neuro-spirochetosis. […]
# gray hair = assay: Case study Patient A: hydroxychloroquine and curcumin added at end of therapy, gray hair; type: in vivo, human; conditions: hydroxychloroquine 200 mg per day for one month plus curcumin 3 g per day, added at end of therapy (FIG. 7)
# Excerpt: Patient reported the following improvements—including the *very surprising* disappearance of minor symptoms they had not been aware of beforehand. A summary follows: • Eyes. Vision blur resolved almost completely. • Brain. Improved cognitive functions short-and-long-term memory (they reported faster typing). • Numbness. Some minor parts of their body that had been numb since the 2008 neuropathy, such as the tips of the toes, started to regain sensitivity. • Body. Even in a condition of little exercise while being hospitalized the patient lost about 5 kg in 2 weeks and seemed more toned and in generally better condition (FIG. 2). • Asthma. Patient A reported better breathing. […] Joints in hands started swelling, and then healing (see FIG. 5). Arthritis has been reported both with spirochetes and Chlamydia Pneumoniae infections (Steere, 1987 [19], Porritt, 2016 [20]). • Prostate. Patient A never had prostate problems. However, they reported a larger urine flow and more frequent nocturnal penile tumescence. • Skin. Lesions and sclerotic plaques on their hands, which dated back from 2008, started healing. They resembled a sub-clinical manifestation of Acrodermatitis Chronica Atrophicans, which appears in phase 3 of European borreliosis (see FIG. 3). Incidentally, the healing process highlighted a small-scale bull's eye patterns, with a white patch and a red dot at the center (FIG. 4). […]
SMILES,"Effect of therapy (patient feeling better, vision improving) (spirochetes)",Reversal of gray hair (gray hair)
"CC1(C)S[C@@H]2[C@H](NC(=O)Cc3ccccc3)C(=O)N2[C@H]1C(=O)O [aqueous crystalline penicillin G, penicillin G]",seemed effective,
COc1cc(/C=C/C(=O)CC(=O)/C=C/c2ccc(O)c(OC)c2)ccc1O [curcumin],,partial reversal of gray hair
CCN(CCO)CCCC(C)Nc1ccnc2cc(Cl)ccc12 (stereo not drawn) [hydroxychloroquine],,partial reversal of gray hair
